Assay results from paper PMC10883716, “Conformational dynamics of adenylate kinase in crystals” (Structural Dynamics, 2024).

Assays:
[1] = biological target: T1, AKign (adenylate kinase from Methanotorrus igneus) (Methanotorris igneus, UniProt P43408); assay: X-ray crystallography, […] A; format: binding; conditions: 4 mM Ap5A, 17% PEG 3350, 250 mM sodium malonate, 20 °C; one per protomer, spans AMP and ATP sites
T1 construct: gene adkA; full length, residues 1-192; synthetic gene in pET21a, C-terminal His6 tag kept (disordered, unbuilt); E. coli BL21(DE3); homotrimer

[2] = biological target: T1, AKign (adenylate kinase from Methanotorrus igneus); assay: X-ray crystallography, […] A; format: binding; conditions: 4 mM AMP, 8% PEG 8000, 100 mM magnesium acetate, sodium acetate pH 4.5, 20 °C; two per protomer, in AMP and ATP sites

T1 sequence (P43408 whole entry, the tested form may be a part): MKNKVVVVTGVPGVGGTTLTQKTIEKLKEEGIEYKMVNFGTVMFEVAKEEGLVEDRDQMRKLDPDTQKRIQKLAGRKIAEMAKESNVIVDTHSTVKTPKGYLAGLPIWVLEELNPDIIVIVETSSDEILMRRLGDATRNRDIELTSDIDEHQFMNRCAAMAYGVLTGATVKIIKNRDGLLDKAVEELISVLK

Row | SMILES | X-ray crystallography, 2.25 A [1] | X-ray crystallography, 2.40 A [2]
1 | Nc1ncnc2c1ncn2[C@@H]1O[C@H](COP(=O)(O)OP(=O)(O)OP(=O)(O)OP(=O)(O)OP(=O)(O)OC[C@H]2O[C@@H](n3cnc4c(N)ncnc43)[C@H](O)[C@@H]2O)[C@@H](O)[C@H]1O [Ap5A, P^1,P^5-di(adenosine 5′)-pentaphosphate] | We also solved the AKign structure with the bound inhibitor, Ap5A. | 
2 | Nc1ncnc2c1ncn2[C@@H]1O[C@H](COP(=O)(O)O)[C@@H](O)[C@H]1O [AMP] |  | AMP-bound AKign structure, which comprises two bound AMP molecules per AKign protomer
